Consider eight compounds from patent US20140005163A1 (NOVARTIS AG, priority 2010, published 2014).

One data set can be described thus: Solubility at pH 6.8. It is filed as physicochemical. Conditions: pH 6.8, aqueous buffer, thermodynamic from solid; read-out: solubility. In a few lines: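 Following the procedure of Zhou et al. (2007), compound solubility was determined at pH 6.8.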
For a further data set, the target named is T1, PI3K beta (Homo sapiens, UniProt P42338).
T1 construct: for the full-length p110-b subunit are generated and fused by overlapping PCR; p85(iSH2) fusion partner (see partner chain) (N); His tag (C); made in house; host or cells: baculovirus; Tn5 (Trichoplusia ni) or TiniPro insect cells
Briefly: PI3K beta kinase assay (Kinase-Glo luminescence). In kind it is biochemical. In a few lines: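 Residual ATP after a 60 min room-temperature reaction is quantified by Kinase-Glo luminescence. Enzyme: 25 nM BV-949 (p85 iSH2–linker–full-length p110β); substrates 1 μM ATP, 10 μg/mL PI; buffer Tris pH 7.5, MgCl2, NaCl, CHAPS, DTT. Eight concentrations per compound, four-parameter logistic IC50.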

The next data set addresses T2, PI3K delta (Homo sapiens, UniProt O00329).
T2 construct: for the full-length p110-d subunit are generated and fused by overlapping PCR; p85(iSH2) fusion partner (see partner chain) (N); His tag (C); made in house; host or cells: baculovirus; Tn5 (Trichoplusia ni) or TiniPro insect cells
Description: PI3K delta kinase assay (Kinase-Glo luminescence). It is filed as biochemical. An outline of the steps:
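ATP 1 μM, PI 10 μg/mL, PI3Kδ construct BV1060 10 nM (final); 10 mM Tris pH 7.5, 3 mM MgCl2, 50 mM NaCl, 0.05% CHAPS, 1 mM DTT; 60 min RT; Kinase-Glo stop, luminescence.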

For data set [1], the system named is PKB Ser473 phosphorylation in Rat1-myr-HA-p110 beta cells. Briefly: Reverse protein array assay, PKB Ser473 phosphorylation in Rat1-myr-p110 beta cells. Conditions: 0.5 h, pAkt Ser473, 30 minutes incubation, read-out: p-PKB IC50. In kind it is cell-based. In a few lines:
(§1)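 Rat1 cells expressing myristoylated HA-tagged p110 alpha, beta or delta were plated for at least 20 h, then exposed to 8-step serial compound dilutions (0.2% DMSO final) for 30 min at 37 °C. Lysates were spotted at four dilutions on protein microarrays, and relative fluorescence intensity of phospho-Ser473 PKB was calculated.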

Data set [2] concerns PKB Ser473 phosphorylation in Rat1-myr-HA-p110 delta cells. Briefly: Reverse protein array assay, PKB Ser473 phosphorylation in Rat1-myr-p110 delta cells. It is filed as cell-based. Conditions: read-out: p-PKB IC50. An outline of the steps:
as §1

SMILES strings stand for the structures. In brackets after ≈: the same amount, converted by molar mass.

T1 sequence (P42338 with tags, fused parts or gaps limits assumed): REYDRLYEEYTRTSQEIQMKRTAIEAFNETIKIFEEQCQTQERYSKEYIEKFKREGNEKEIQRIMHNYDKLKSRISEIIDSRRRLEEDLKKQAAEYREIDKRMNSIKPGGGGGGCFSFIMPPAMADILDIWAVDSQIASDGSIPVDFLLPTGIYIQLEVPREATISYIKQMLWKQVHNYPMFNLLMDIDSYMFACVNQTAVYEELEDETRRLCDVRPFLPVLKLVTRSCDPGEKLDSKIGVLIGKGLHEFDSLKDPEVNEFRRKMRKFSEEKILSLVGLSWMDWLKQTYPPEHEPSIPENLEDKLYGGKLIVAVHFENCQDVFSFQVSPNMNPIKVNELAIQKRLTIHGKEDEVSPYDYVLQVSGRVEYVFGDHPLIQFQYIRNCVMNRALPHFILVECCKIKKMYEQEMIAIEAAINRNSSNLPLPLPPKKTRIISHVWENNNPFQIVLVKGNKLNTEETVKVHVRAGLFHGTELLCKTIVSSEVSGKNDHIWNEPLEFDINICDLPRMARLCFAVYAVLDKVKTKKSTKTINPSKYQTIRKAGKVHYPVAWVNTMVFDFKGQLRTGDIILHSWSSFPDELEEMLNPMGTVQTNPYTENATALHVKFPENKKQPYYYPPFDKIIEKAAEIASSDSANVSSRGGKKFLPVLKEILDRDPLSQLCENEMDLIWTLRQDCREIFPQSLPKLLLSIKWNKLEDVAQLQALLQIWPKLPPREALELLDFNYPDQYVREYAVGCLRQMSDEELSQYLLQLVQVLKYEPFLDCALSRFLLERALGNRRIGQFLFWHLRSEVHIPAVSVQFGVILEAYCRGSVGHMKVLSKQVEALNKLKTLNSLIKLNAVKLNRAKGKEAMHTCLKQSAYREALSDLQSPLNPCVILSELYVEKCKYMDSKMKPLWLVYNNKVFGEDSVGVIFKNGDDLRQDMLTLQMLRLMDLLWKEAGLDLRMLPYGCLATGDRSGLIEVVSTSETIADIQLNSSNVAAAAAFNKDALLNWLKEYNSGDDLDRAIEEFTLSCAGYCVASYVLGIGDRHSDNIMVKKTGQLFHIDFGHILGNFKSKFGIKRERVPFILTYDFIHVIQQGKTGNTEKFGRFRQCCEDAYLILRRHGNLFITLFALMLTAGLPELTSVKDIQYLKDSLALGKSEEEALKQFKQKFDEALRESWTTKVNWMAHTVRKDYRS
T2 sequence (O00329 with tags, fused parts or gaps limits assumed): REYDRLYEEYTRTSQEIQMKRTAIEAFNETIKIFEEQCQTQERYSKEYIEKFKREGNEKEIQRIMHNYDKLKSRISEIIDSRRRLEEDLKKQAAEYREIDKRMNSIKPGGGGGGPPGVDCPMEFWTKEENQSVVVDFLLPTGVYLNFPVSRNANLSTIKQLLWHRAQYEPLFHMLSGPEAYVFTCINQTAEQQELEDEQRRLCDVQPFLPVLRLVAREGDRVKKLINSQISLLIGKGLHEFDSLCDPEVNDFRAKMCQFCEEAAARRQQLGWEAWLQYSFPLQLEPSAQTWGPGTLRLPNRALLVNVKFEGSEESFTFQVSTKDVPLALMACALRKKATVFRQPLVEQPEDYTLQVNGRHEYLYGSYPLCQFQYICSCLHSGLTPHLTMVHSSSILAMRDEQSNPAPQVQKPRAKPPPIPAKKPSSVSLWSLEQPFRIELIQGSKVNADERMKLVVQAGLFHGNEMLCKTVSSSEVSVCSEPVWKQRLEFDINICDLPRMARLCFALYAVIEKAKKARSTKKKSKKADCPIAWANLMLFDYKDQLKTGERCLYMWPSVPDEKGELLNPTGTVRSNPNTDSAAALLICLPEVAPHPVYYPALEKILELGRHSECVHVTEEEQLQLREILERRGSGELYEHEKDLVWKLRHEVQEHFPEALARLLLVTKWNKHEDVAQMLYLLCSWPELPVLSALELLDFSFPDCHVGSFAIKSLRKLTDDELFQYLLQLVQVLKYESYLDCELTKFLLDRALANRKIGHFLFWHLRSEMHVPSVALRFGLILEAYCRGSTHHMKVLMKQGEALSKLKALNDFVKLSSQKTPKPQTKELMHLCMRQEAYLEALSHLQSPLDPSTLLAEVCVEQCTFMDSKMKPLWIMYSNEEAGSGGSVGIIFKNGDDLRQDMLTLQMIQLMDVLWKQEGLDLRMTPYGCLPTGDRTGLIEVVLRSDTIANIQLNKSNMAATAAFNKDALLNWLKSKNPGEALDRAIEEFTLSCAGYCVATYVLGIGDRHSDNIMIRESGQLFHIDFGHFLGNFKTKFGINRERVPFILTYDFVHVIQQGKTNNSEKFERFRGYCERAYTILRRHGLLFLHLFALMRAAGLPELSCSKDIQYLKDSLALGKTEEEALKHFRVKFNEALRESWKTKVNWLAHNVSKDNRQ

In general, solubility refers to the concentration that dissolves in the medium under given conditions. In general, IC50 refers to the concentration that inhibits the measured activity by half. Consider `CNC(=O)c1ccc(-c2ccc3ncc4c(c3c2)n(-c2cn(C)nc2C)c(=O)n4C)cc1` [Example 43.1, 4-[1-(1,3-Dimethyl-1H-pyrazol-4-yl)-3-methyl-2-oxo-2,3-dihydro-1H-imidazo[4,5-c]quinolin-8-yl]-N-methyl-benzamide], for which the solubility in the data set “Solubility at pH 6.8” amounted to 19 µg/mL (≈ 44.6 µM). The 50% inhibitory concentration (IC50) at PI3K beta turned out to be 190 nM; on PI3K delta it was 218 nM; in data set [1] it was 11 nM; in data set [2], 46 nM.

On to `CCNc1cc(-c2ccc3ncc4c(c3c2)n(-c2c(C)nn(C)c2C)c(=O)n4C)cnc1Cl` [Example 153.1, 8-(6-Chloro-5-ethylamino-pyridin-3-yl)-3-methyl-1-(1,3,5-trimethyl-1H-pyrazol-4-yl)-1,3-dihydro-imidazo[4,5-c]quinolin-2-one], for which the solubility in the data set “Solubility at pH 6.8” is 6 µg/mL (≈ 13 µM). Also, the IC50 worked out at 14 nM at PI3K beta, 3 nM on PI3K delta, 17 nM in data set [1] and 19 nM in data set [2].

On to `COCc1cncc(-c2ccc3ncc4c(c3c2)n(-c2cn(C)nc2Cl)c(=O)n4C)c1` [Example 54.2, 1-(3-Chloro-1-methyl-1H-pyrazol-4-yl)-8-(5-methoxymethyl-pyridin-3-yl)-3-methyl-1,3-dihydro-imidazo[4,5-c]quinolin-2-one], for which the solubility in “Solubility at pH 6.8” was > 435 µg/mL. Besides, the IC50 on PI3K beta worked out at 51 nM; on PI3K delta, 20 nM; in data set [1], 43 nM; in data set [2] it was 44 nM.

Regarding `CCNc1cc(-c2ccc3ncc4c(c3c2)n(-c2cn(C)nc2C)c(=O)n4C)cnc1CC` [Example 161, 1-(1,3-Dimethyl-1H-pyrazol-4-yl)-8-(6-ethyl-5-ethylamino-pyridin-3-yl)-3-methyl-1,3-dihydro-imidazo[4,5-c]quinolin-2-one], the solubility in “Solubility at pH 6.8” is 433 µg/mL (≈ 981 µM). Further, the IC50 is 18 nM on PI3K beta, 8 nM on PI3K delta, < 5 nM in data set [1] and < 5 nM in data set [2].

On to `Cc1cc(-n2c(=O)n(C)c3cnc4ccc(-c5ccc(C(F)(F)F)nc5)cc4c32)n(C)n1` [Example 8.2, 1-(2,5-Dimethyl-2H-pyrazol-3-yl)-3-methyl-8-(6-trifluoromethyl-pyridin-3-yl)-1,3-dihydro-imidazo[4,5-c]quinolin-2-one], for which the solubility in the data set “Solubility at pH 6.8” was 4 µg/mL (≈ 9.12 µM). Also, the IC50 on PI3K beta came out at 387 nM; at PI3K delta, 120 nM; in data set [1] it was 326 nM; in data set [2] it was 412 nM.

On to `COCCOc1cc(-c2ccc3ncc4c(c3c2)n(-c2cn(C)nc2C)c(=O)n4C)cnc1CO` [Example 244, 1-(1,3-Dimethyl-1H-pyrazol-4-yl)-8-[6-hydroxymethyl-5-(2-methoxy-ethoxy)-pyridin-3-yl]-3-methyl-1,3-dihydro-imidazo[4,5-c]quinolin-2-one], for which the solubility in “Solubility at pH 6.8” came to 92 µg/mL (≈ 194 µM). Besides, the IC50 on PI3K beta amounted to 188 nM; on PI3K delta it was 17 nM; in data set [1], 386 nM; in data set [2], 347 nM.

Take `CCNc1cc(-c2ccc3ncc4c(c3c2)n(-c2cn(C(C)C)nc2C)c(=O)n4C)cnc1CO` [Example 155.3, 8-(5-Ethylamino-6-hydroxymethyl-pyridin-3-yl)-1-(1-isopropyl-3-methyl-1H-pyrazol-4-yl)-3-methyl-1,3-dihydro-imidazo[4,5-c]quinolin-2-one]: in the data set “Solubility at pH 6.8”, the solubility was > 472 µg/mL. Besides, the half-inhibitory concentration (IC50) was 46 nM at PI3K beta, 10 nM at PI3K delta, < 5 nM in data set [1] and 9 nM in data set [2].

As to `CNc1cc(-c2ccc3ncc4c(c3c2)n(-c2cn(C)nc2C)c(=O)n4C)cnc1COC` [Example 159, 1-(1,3-Dimethyl-1H-pyrazol-4-yl)-8-(6-methoxymethyl-5-methylamino-pyridin-3-yl)-3-methyl-1,3-dihydro-imidazo[4,5-c]quinolin-2-one], in “Solubility at pH 6.8”, the solubility was > 444 µg/mL. The half-inhibitory concentration (IC50) amounted to 100 nM at PI3K beta, 25 nM at PI3K delta, 8 nM in data set [1] and 24 nM in data set [2].
